Data on eleven compounds can be found in ChEMBL document CHEMBL5465560, “Selectivity Literature for EUbOPEN Chemogenomic Library” (2024).

The term EC50 denotes the concentration giving half of the maximal effect. A higher EC50 goes with a less potent agent. Usually IC50 stands for the midpoint of a concentration-inhibition curve.

Assay [1] deals with Tyrosine-protein kinase Fgr (Homo sapiens) (UniProt P09769). Nature of the assay: Selectivity interaction (SelectScreen profiling (Invitrogen)) EUB0000607a FGR. As to conditions: at 2 µM.
The target of assay [2] is Tyrosine-protein kinase JAK1 (Homo sapiens, UniProt P23458). Nature of the assay: Selectivity interaction (NanoBRET assay (HEK293T cells)) EUB0001558a JAK1. It is filed as cell-based, HEK-293T. In general terms: In BRET a luciferase serves as donor, and the signal depends on an acceptor being close.
For assay [3], the target named is Serine/threonine-protein kinase PAK 3 (Homo sapiens) (UniProt O75914). Nature of the assay: Selectivity interaction (KinomeScan (DiscoverX)) EUB0000229b PAK3. As to conditions: at 10 µM.
Assay [4] is described as follows: Selectivity interaction (KinomeScan (DiscoverX)) EUB0000229b CDPK1. As to conditions: at 1 µM.
Assay [5] has as its target BMP-2-inducible protein kinase (Homo sapiens) (UniProt Q9NSY1). Nature of the assay: Selectivity interaction (KinomeScan (DiscoverX)) EUB0000229b BMP2K. To be noted: at 10 µM.
Assay [6] concerns the target T1, 3-phosphoinositide-dependent protein kinase 1 (Homo sapiens) (UniProt O15530).
T1 sequence (whole entry): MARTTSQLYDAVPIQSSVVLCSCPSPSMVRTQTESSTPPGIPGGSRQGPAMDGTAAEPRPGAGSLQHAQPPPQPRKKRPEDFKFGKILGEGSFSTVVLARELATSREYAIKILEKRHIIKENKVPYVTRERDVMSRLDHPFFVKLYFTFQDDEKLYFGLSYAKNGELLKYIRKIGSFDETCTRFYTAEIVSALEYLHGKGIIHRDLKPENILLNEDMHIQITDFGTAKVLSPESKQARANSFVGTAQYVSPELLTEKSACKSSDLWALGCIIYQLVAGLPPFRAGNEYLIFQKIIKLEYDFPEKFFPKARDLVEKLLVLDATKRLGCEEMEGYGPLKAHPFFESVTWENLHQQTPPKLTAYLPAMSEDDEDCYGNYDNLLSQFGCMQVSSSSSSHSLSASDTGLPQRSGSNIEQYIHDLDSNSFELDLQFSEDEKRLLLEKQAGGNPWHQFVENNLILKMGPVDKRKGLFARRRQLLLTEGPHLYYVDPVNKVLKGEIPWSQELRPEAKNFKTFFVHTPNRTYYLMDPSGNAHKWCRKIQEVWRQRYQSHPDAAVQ
Nature of the assay: Selectivity interaction (KinomeScan (DiscoverX)) EUB0000229b PDPK1. As to conditions: at 10 µM.

In assay [7] the target is Protein arginine N-methyltransferase 6 (Homo sapiens, UniProt Q96LA8). Nature of the assay: Selectivity interaction (Methyltransferase screen (Scintillation proximity assays)) EUB0000255b PRMT6.
The target in assay [8] is Protein arginine N-methyltransferase 3 (Homo sapiens, UniProt O60678). Description: Selectivity interaction (Scintillation proximity assays) EUB0000255b PRMT3. Background: Scintillation proximity formats need no separation of bound from free tracer.
Assay [9] deals with Mitogen-activated protein kinase 11 (Homo sapiens) (UniProt Q15759). Nature of the assay: Selectivity interaction (KinomeScan (DiscoverX)) EUB0000655a MAPK11. To be noted: at 10 µM.
Assay [10] concerns the target T2, G protein-coupled receptor kinase 3 (Homo sapiens) (UniProt P35626).
T2 sequence (whole entry): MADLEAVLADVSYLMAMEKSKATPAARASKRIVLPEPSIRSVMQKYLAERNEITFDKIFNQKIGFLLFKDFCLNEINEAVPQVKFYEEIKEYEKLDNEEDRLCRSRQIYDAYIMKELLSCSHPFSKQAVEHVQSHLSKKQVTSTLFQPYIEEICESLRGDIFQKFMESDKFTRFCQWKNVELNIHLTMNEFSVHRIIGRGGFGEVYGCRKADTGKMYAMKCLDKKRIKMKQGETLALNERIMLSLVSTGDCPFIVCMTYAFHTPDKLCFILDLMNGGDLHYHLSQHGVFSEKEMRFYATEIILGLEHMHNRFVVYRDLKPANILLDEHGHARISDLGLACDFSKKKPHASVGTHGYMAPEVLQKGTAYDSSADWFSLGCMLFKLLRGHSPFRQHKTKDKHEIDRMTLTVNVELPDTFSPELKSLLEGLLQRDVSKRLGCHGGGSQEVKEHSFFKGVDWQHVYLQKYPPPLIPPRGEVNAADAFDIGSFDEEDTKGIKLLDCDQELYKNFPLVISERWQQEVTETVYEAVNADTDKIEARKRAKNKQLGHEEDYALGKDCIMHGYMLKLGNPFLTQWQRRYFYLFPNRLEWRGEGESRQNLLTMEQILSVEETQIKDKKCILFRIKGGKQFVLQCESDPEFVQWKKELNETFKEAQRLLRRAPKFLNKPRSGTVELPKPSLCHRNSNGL
Nature of the assay: Selectivity interaction (KinomeScan (DiscoverX)) EUB0001079a ADRBK2. To be noted: at 1 µM.

Assay [11] addresses Calcium/calmodulin-dependent protein kinase type II subunit beta (Homo sapiens) (UniProt Q13554). Nature of the assay: Selectivity interaction (KinomeScan (DiscoverX)) EUB0001619a CAMK2B. As to conditions: at 1 µM.
Assay [12] concerns the target Serine/threonine-protein kinase Chk2 (Homo sapiens) (UniProt O96017). Description: Selectivity interaction (ActivX KiNativ screen (kinase selectivity in THP-1 cell lysates)) EUB0000639a CHEK2. It is filed as subcellular. As to conditions: lysate, at 5 µM.
The target of assay [13] is Cyclin-dependent kinase 2 (Homo sapiens, UniProt P24941). Description: Selectivity interaction (KinomeScan (DiscoverX)) EUB0000092b CDK2. To be noted: at 10 µM.
In assay [14] the target is T3, Inhibitor of nuclear factor kappa-B kinase subunit epsilon (Homo sapiens) (UniProt Q14164).
T3 sequence (whole entry): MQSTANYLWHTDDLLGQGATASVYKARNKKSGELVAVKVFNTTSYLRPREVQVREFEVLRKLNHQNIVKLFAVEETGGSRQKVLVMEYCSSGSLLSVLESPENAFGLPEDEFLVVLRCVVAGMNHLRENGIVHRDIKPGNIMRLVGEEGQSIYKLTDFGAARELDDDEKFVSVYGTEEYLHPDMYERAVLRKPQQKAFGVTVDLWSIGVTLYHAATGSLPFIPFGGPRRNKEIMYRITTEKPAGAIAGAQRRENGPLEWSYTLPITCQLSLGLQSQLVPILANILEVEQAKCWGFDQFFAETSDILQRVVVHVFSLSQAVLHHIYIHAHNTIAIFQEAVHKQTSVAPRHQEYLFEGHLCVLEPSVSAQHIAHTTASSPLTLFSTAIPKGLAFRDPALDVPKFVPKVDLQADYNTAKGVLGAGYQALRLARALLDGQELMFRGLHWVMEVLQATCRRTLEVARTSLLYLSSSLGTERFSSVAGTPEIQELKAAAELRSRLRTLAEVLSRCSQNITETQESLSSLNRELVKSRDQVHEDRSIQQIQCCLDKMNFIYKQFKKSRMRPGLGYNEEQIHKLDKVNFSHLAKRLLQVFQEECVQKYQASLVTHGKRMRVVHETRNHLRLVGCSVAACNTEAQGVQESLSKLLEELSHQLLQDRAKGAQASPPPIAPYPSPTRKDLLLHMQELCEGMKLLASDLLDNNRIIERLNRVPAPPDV
Nature of the assay: Selectivity interaction (KinomeScan (DiscoverX)) EUB0000045b IKBKE.

The target of another assay is Aurora kinase B (Homo sapiens, UniProt Q96GD4). Nature of the assay: Selectivity interaction (KinomeScan (DiscoverX)) EUB0000618a AURKB. To be noted: at 10 µM.

Protein arginine N-methyltransferase 6, sequence (Q96LA8 whole entry, looked up): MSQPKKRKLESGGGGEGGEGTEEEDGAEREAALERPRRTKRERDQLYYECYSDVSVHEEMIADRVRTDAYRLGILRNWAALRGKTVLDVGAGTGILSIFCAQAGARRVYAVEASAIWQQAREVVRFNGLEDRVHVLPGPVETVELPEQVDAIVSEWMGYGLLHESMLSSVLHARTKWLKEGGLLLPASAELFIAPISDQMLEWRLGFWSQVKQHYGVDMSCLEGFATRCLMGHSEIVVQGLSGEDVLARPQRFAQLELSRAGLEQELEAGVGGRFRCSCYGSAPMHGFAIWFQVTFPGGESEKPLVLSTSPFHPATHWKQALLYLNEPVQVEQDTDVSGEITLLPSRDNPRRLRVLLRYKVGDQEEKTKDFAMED
Mitogen-activated protein kinase 11 (Homo sapiens), sequence (Q15759 whole entry): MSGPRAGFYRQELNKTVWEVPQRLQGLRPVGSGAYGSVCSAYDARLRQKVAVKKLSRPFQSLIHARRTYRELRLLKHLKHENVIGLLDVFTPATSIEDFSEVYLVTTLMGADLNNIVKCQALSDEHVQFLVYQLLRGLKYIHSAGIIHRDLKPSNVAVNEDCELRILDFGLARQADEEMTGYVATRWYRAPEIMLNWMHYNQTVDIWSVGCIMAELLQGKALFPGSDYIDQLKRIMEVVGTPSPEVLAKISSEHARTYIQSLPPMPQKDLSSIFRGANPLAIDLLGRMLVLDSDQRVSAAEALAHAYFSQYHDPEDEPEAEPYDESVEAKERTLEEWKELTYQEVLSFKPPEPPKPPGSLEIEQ
Tyrosine-protein kinase JAK1, sequence (P23458 whole entry): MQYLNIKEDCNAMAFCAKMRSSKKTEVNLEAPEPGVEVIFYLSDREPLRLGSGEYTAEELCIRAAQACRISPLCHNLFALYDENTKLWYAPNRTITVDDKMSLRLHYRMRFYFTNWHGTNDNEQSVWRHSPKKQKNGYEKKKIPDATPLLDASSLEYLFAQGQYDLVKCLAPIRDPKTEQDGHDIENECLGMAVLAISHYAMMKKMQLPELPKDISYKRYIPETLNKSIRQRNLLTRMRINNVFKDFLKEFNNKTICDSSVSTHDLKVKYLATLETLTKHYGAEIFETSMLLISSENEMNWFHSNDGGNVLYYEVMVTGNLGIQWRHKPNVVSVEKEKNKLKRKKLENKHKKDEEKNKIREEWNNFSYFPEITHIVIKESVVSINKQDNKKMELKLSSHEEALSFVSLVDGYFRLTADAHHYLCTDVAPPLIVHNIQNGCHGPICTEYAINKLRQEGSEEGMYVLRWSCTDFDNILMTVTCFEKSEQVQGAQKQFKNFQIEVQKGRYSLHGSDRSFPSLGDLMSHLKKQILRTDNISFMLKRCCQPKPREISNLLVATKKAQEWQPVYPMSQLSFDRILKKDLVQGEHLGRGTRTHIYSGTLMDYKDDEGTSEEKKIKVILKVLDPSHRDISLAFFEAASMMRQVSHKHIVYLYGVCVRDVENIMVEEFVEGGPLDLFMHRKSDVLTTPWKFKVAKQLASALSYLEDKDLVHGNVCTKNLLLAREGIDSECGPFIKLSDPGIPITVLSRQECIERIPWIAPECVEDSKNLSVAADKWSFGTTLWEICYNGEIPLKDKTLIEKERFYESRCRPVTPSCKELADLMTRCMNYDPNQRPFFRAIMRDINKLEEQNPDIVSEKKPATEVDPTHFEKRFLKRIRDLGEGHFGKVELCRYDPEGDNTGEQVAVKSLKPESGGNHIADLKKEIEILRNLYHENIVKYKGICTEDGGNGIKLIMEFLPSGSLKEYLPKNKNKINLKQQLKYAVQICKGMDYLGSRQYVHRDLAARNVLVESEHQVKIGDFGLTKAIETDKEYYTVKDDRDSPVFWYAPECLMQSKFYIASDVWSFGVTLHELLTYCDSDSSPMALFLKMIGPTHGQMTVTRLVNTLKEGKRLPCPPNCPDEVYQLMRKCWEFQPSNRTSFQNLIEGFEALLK
Tyrosine-protein kinase Fgr (Homo sapiens), sequence (P09769 2-529 limits assumed): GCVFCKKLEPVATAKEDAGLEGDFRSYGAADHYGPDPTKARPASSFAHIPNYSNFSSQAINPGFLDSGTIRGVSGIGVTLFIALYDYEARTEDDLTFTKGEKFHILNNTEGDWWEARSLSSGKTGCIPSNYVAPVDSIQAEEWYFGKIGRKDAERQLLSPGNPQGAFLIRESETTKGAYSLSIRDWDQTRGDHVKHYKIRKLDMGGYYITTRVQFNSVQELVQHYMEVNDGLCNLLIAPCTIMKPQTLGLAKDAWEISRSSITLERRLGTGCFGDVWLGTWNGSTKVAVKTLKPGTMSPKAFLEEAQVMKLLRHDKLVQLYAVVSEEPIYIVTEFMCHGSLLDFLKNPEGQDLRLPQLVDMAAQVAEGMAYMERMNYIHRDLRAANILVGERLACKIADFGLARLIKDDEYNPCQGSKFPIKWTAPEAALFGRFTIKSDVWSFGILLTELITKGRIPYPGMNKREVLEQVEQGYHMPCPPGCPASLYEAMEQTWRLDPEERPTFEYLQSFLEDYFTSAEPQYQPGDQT
Calcium/calmodulin-dependent protein kinase type II subunit beta (Homo sapiens), sequence (Q13554 whole entry): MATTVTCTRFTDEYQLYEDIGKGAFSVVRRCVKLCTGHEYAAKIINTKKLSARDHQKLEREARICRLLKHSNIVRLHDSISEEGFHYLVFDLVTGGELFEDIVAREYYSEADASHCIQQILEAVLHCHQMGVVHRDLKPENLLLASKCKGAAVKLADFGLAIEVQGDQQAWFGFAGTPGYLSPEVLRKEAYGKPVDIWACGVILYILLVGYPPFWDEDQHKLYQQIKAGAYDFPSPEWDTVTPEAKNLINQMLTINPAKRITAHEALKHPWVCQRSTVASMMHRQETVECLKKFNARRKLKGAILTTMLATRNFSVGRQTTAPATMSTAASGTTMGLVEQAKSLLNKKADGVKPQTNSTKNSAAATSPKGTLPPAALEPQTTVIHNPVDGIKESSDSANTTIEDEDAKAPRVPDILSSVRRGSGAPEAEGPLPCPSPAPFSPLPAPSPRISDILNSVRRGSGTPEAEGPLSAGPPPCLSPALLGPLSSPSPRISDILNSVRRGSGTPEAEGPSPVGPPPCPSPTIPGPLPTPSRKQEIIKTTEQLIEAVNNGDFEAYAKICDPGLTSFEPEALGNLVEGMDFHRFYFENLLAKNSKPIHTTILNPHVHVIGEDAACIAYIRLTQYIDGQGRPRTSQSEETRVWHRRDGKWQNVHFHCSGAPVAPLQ
Serine/threonine-protein kinase PAK 3 (Homo sapiens), sequence (O75914 whole entry, looked up): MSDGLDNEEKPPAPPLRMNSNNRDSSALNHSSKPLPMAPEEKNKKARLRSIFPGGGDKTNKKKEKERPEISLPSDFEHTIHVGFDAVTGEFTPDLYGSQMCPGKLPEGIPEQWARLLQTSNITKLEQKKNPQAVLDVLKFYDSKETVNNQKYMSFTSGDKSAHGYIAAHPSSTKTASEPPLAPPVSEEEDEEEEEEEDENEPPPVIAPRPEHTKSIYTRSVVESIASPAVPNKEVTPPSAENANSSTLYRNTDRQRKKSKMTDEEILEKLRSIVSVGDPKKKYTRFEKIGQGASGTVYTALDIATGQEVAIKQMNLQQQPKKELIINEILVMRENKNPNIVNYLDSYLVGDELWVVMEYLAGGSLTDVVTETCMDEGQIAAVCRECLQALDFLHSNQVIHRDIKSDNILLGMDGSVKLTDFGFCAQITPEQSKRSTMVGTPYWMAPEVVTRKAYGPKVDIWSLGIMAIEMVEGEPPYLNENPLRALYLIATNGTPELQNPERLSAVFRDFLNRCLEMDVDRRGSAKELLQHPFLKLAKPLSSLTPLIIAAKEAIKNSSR
BMP-2-inducible protein kinase (Homo sapiens), sequence (Q9NSY1 whole entry, looked up): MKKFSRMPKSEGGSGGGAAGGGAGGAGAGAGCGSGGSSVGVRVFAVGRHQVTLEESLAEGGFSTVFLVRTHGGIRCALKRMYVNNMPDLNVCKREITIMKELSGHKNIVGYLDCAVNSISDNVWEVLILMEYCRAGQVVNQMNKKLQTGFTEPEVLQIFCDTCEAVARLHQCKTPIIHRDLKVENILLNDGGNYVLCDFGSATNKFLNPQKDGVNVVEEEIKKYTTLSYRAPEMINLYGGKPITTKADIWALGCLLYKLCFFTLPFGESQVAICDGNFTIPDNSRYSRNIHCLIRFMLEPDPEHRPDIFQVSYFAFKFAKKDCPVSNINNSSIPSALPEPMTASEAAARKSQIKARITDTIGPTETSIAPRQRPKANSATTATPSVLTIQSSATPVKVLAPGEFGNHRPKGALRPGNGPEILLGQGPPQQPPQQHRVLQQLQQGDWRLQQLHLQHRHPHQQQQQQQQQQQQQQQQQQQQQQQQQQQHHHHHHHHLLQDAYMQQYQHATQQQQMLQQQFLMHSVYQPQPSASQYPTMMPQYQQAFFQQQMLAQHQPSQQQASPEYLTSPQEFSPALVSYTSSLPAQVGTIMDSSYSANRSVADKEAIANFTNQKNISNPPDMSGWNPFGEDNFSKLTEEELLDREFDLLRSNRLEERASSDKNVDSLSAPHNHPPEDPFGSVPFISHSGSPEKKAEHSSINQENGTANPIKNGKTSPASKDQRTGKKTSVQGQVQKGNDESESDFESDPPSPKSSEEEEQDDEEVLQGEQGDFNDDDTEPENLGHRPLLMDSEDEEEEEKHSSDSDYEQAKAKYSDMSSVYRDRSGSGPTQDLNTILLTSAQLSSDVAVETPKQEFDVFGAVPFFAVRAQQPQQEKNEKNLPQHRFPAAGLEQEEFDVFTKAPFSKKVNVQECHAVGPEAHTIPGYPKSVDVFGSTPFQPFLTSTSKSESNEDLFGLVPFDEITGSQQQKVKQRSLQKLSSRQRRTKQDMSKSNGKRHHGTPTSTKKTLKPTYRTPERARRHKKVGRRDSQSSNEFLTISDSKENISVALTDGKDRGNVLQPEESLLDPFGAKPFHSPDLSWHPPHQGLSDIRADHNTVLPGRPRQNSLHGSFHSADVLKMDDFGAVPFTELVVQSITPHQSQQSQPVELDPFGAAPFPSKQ

For the compound `CNC(=O)Nc1ccc(-c2nc(N3CC4CCC(C3)O4)c3cnn(C4CCC5(CC4)OCCO5)c3n2)cc1`, the % of inhibition in assay [1] is 1%.
`CC(C)(O)[C@H](F)CN1Cc2cc(NC(=O)c3cnn4cccnc34)c(N3CCOCC3)cc2C1=O`: the EC50 in [2] is more than 50 µM.
`COc1cc(N(C)c2ccnc3ccc(C(F)(F)F)cc23)cc(OC)c1OC`: the % binding in assay [3] was determined as 96%; in assay [4] it was 74%; in assay [5], 99%; in assay [6], 98%.
Take `COCCN1CCC(c2cc(CN(C)C(=O)c3cccc(Oc4ccccc4)c3)ccn2)CC1`: the values for the % activity in [7] (at 1 µM) and in assay [7] (at 10 µM) were 17% and more than 90%, respectively. In assay [8], this compound returned an IC50 of more than 10 µM.
On to `CN(C)CCOc1ccc(-c2nc(-c3ccncc3)c(-c3ccc4c(c3)CC/C4=N\O)[nH]2)cc1`, for which, in assay [9], the % of control is 91%.
`Nc1cnc(N2CCc3cc(S(=O)(=O)Nc4c(F)cc(Cl)cc4F)cc(N4CCCC4=O)c32)nc1` [TP-020n] came in with a % of control in [10] of 100%.
For `N#Cc1cccc(-c2c[nH]c3ncnc(N4CCOCC4)c23)c1`, the % of control in [11] stood at 83%.
In turn, `CC[C@@H]1[C@H](F)C(=O)N[C@@H]1COc1nccc2cc(C(N)=O)c(OC)cc12` [ZIMLOVISERTIB] returned a % of inhibition in [12] of 65.9%.
In turn, `CCC(=O)N1CCN(c2ccc(-n3c(=O)ccc4cnc5ccc(-c6cnc7ccccc7c6)cc5c43)cc2C(F)(F)F)CC1` came in with a % of control in [13] of 6.2%.
As for `C=CC(=O)Nc1cc(-n2c(=O)ccc3cnc4ccc(-c5ccc(NS(C)(=O)=O)cc5)cc4c32)ccc1C`, the % of control in assay [14] (at 1 µM) and in [14] (at 10 µM) was 100% in each case.
Regarding `O[C@H]1CC[C@H](Nc2ncc3nc(Nc4c(F)cc(F)cc4F)n([C@H]4CCOC4)c3n2)CC1`, the % of control on Aurora kinase B is 100%.
